According to patent publication US11400070B2, “Methods of treating retinal diseases” (Alimera Sciences, Inc., priority 2018, dated 2022):
Like-named read-outs stand apart in the source and are kept apart here.

Experiments:
ARPE-19 monolayers [1] = experiment: Cytotoxicity by microscopic inspection of monolayers and TEER reduction; format: cell-based; details: for Cytotoxic: ARPE-19 monolayers, any concentration tested; for Cytotoxicity observed: any of the concentrations tested
Experimental: Cytotoxicity of test compounds was assessed by microscopic inspection of cellular monolayers and reductions in TEER following the administration of test compounds. All compounds were formulated fresh on the day of the experiment. Final concentrations were prepared by serial dilutions in DMEM media. Separate vehicle controls were prepared for each study. Formulation for all agents utilized vehicles containing less than 0.1% DMSO.

ARPE-19 monolayers [2] = experiment: Suppression of gHSA-induced reduction of TEER in confluent ARPE-19 monolayers; format: cell-based
rd10 mice [3] = experiment: Cone cell density in rd10 mice; format: in vivo, mouse; details: P65; 40 mg/kg daily s.c.; 4 quadrants
Experimental: (§1) Mice were treated in accordance with the Association for Research in Vision and Ophthalmology. Rd10^+/+ mice (B6.CXB1-Pde6brd10/J) were given daily subcutaneous injections of 40 mg/kg metipranolol provided by the British Pharmacopoeia Commission Laboratory, Tddington, UK or vehicle (PBS containing 5.8% ethanol) between P14 to P65.
Cone cell density was measured by methods known by one of skill in the arts. See Komeima K, Rogers B S, Lu L, Campochiaro P A. Antioxidants reduce cone cell death in a model of retinitis pigmentosa. Proc Natl Acad Sci USA 2006; 103:11300-5 and Komeima K, Rogers B S, Campochiaro P A. Antioxidants slow photoreceptor cell death in mouse models of retinitis pigmentosa. J Cell Physiol 2007; 213:809-15. Briefly, mice at P65 were euthanized and the eyes were removed and fixed in 4% PFA for 1 hour followed by dissection to remove cornea, iris and lens. The retina was carefully isolated from the eyecup and a small incision was made at the nasal position for future orientation. […] The retinas were flat mounted and visualized by fluorescence microscopy using an excitation wavelength of 543 nm to detect rhodamine fluorescence of PNA.

C57bl/6 female mice = experiment: Laser-induced choroidal neovascularization at Bruch's membrane rupture sites; format: in vivo, mouse; details: 40 mg/kg daily s.c., 3 days before to 1 week after laser
Experimental: Choroidal neovascularization was induced by methods known to one of ordinary skill in the art. […] Am J Pathol 1998; 153(5):1641-6. Adult C57bl/6 female mice (Charles River, Wilmington, Mass.), 5 weeks of age, were given daily subcutaneous injections of 40 mg/kg metipranolol or vehicle (PBS containing 5.8% ethanol) every day, starting 3 days before laser-induced Bruch's membrane rupture and continuing through 1 week after laser treatment. Mice were anesthetized, with a mixture of ketamine (100 mg/kg) and xylazine (5 mg/kg) by intraperitoneal injections, and pupils were dilated with 0.5% tropicamide and 0.5% phenylephrine hydrochloride from Santen Pharmaceutical Co., Osaka, Japan. […] Following 1 week after laser, animals were euthanized and choroidal neovascularization was measured. […] The remaining eyecups consisting of the retinal pigmented epithelium, choroid, and sclera were stained with FITC-labeled Griffonia Simplicifolia lectin (GSA), which selectively stains vascular cells, fluorescent images were captured with an Axioskop microscope from Zeiss, Thornwood, N.Y., and the area of choroidal neovascularization at Bruch's membrane rupture sites were measured. These images were quantified using Image-Pro Plus software. […]

rd10 mice [4] = experiment: Superoxide radicals (dihydroethidium dye) in rd10 retinas; format: in vivo, mouse; details: data not shown
rd10 mice [5] = experiment: TUNEL assay in retinas of rd10 mice; format: in vivo, mouse; details: P23; 40 mg/kg daily s.c.
Experimental: as §1
Apoptotic cells were identified in retinas from P23 mice using the manufacturer's instructions for the In Situ Cell Death Detection Kit (Sigma Aldrich, St. Louis, Mo.).

rd10 mice [6] = experiment: Nitrite and nitrotyrosine assays in retinas of rd10 mice; format: in vivo, mouse; details: 40 mg/kg daily s.c.
Experimental: as §1
Nitrite concentration in retinas from P35 rd10 mice was measured using the Nitrate/Nitrite Colorimetric Assay Kit (Cayman Chemical Company, Ann Arbor, Mich.) according to the manufacturer's instructions. Nitrotyrosine assay was performed on retinas from P35 mice using the 3-Nitrotyrosine ELISA kit (Abcam, Cambridge, Mass.).

rd10 mice [7] = experiment: Outer nuclear layer (ONL) thickness in rd10 mice; format: in vivo, mouse; details: P35; 40 mg/kg daily s.c.; 6 locations measured
Experimental: as §1
Measurements of ONL thickness were performed using methods known to one of skill in the art. See Lee S Y, Usui S, Zafar A B, et al. N-acetylcysteine promotes long term survival of cones in a model of retinitis pigmentosa. 2010; 226:1843-9. Briefly, 10 micron frozen ocular sections were cut in the 12:00 to 6:00 meridian, stained with hematoxylin and eosin, visualized with an Axioskop microscope from Zeiss, Thornwood, N.Y. and images were digitized using a three charge-coupled device (CCD) color video camera from Toshiba, Tokyo, Japan, and a frame grabber. […] Three separate sections were used for each mouse and averaged. Eight animals injected with vehicle and 9 animals injected with metipranolol were used to evaluate ONL thickness between these two groups.

rd10 mice [8] = experiment: Scotopic and photopic electroretinogram recordings in rd10 mice; format: in vivo, mouse
Experimental: as §1
Scotopic and photopic electroretinograms (ERGs) were recorded using a Diagnosys instrument (Espion, Littleton, Mass.). See Komeima K, Rogers B S, Lu L, Campochiaro P A. Antioxidants reduce cone cell death in a model of retinitis pigmentosa. Proc Natl Acad Sci USA 2006; 103:11300-5 and Komeima K, Rogers B S, Campochiaro P A. Antioxidants slow photoreceptor cell death in mouse models of retinitis pigmentosa. J Cell Physiol 2007; 213:809-15. For scotopic recordings, rd10 mice were dark adapted for overnight, anesthetized with a mixture of ketamine (100 mg/kg) and xylazine (5 mg/kg) by intraperitoneal injections, and pupils were dilated with 0.5% tropicamide and 0.5% phenylephrine hydrochloride provided by Santen Pharmaceutical Co., Osaka, Japan. Mice were placed on a heating pad and platinum electrodes were placed on the corneas after application of gonioscopic prism solution provided by Alcon Labs, Fort Worth, Tex. Reference electrode was attached subcutaneously between the eyes on the scalp and a ground electrode was attached to the tail. The Ganzfeld illuminator was then placed over the head in a position to ensure equal illumination to both eyes. Scotopic ERGs were recorded at 11 flash intensities (−4, −2.5, −2.2, −1.79, −1.39, −1, −0.6, −0.39, −0.20, 1.0, 1.39 log cd-s/m2). For each flash intensity, 5 readings were taken and averaged. For photopic ERGs, mice were initially light adapted for 7 minutes with 30 cd/m2 background light and flashed at 3 light intensities (0.6, 1.0, 1.39 log cd-s/m2). For each flash intensity, 5 readings were taken and averaged.

rd10 mice [9] = experiment: Immunohistochemistry (rhodopsin, cone arrestin, 3-nitrotyrosine) of rd10 retinas; format: in vivo, mouse; details: 40 mg/kg daily s.c.
Experimental: as §1
Ten microns ocular frozen sections were stained with anti-rhodopsin antibody 1D4 (1:200, ThermoFisher Scientific, Waltham, Mass.), anti-3-nitrotyrosine antibody (10 μg/ml, EMD Millipore, Temecula, Calif.) or anti-cone arrestin antibody (1:10,000, EMD Millipore, Temecula, Calif.).

NADPH Oxidase = NADPH Oxidase activity in retinas of rd10 mice; format: in vivo, mouse

Cc1cc(OCC(O)CNC(C)C)c(C)c(C)c1O (centres unmarked) [Desacetylmetipranolol, desacetylmetipranolol]
Cytotoxic (ARPE-19 monolayers [1]): No | Cytotoxicity observed (ARPE-19 monolayers [1]): No cytotoxicity was observed | Effect on gHSA induced reduction in RPE resistance (TEER) (ARPE-19 monolayers [2]; pretreatment 10 μM, 4 and 6 hours after gHSA): suppressed the gHSA induced reduction in RPE resistance | EC50 (ARPE-19 monolayers [2]; read-out: EC50 for suppression of the decrease in TEER induced by gHSA, pretreatment, gHSA 100 μg/mL): 980 nM

CC1(C)O[C@@H]2C[C@H]3[C@@H]4C[C@H](F)C5=CC(=O)C=C[C@]5(C)[C@@]4(F)[C@@H](O)C[C@]3(C)[C@]2(C(=O)CO)O1 [Fluocinolone, fluocinolone acetonide]
Cytotoxic (ARPE-19 monolayers [1]): No | Cytotoxicity observed (ARPE-19 monolayers [1]): No cytotoxicity was observed | Effect on reduction in TEER induced by gHSA (ARPE-19 monolayers [2]; pretreatment 10^−6 to 10^−4 M, gHSA 100 μg/mL): did not significantly alter

CC(=O)Oc1c(C)cc(OCC(O)CNC(C)C)c(C)c1C (centres unmarked) [Metipranolol, metipranolol]
Mean cone photoreceptor cell density vs vehicle (rd10 mice [3]): significantly greater in 3 of 4 quadrants | Area of choroidal neovascularization at Bruch's membrane rupture sites vs vehicle (C57bl/6 female mice): significantly reduced | Superoxide radicals (dihydroethidium dye) vs vehicle (rd10 mice [4]): no differences were found | TUNEL-positive cells in retina (rd10 mice [5]): few TUNEL-positive cells | Mean concentration of nitrite in retinal homogenates (rd10 mice [6]; P35): significantly greater in retinal homogenates from P35 vehicle-treated versus metipranolol-treated rd10 mice | Mean concentration of 3-nitrotyrosine protein adducts (ELISA) vs vehicle (rd10 mice [6]; P35 retinas): significant reduction | Mean ONL thickness vs vehicle (rd10 mice [7]): significantly greater at 4 of the 6 locations | Cytotoxic (ARPE-19 monolayers [1]): No | Cytotoxicity observed (ARPE-19 monolayers [1]): No cytotoxicity was observed | Mean scotopic b-wave amplitude vs vehicle (rd10 mice [8]; P35, 40 mg/kg daily s.c. from P14, all 11 flash intensities): significantly higher | Mean scotopic a-wave amplitude vs vehicle (rd10 mice [8]; P35, 40 mg/kg daily s.c. from P14, flash 1.0 and 1.39 log cd-s/m2): significantly greater | Photopic b-wave amplitudes vs vehicle (rd10 mice [8]; P35, 40 mg/kg daily s.c., 0.6 and 1.0 log cd-s/m2): significantly higher | Mean scotopic b-wave amplitude vs vehicle (rd10 mice [8]; P50, 40 mg/kg daily s.c., 1.0 and 1.39 log cd-s/m2): significantly higher | Mean photopic b-wave amplitude vs vehicle (rd10 mice [8]; P50, 40 mg/kg daily s.c., 1.39 log cd-s/m2): significantly greater | Rhodopsin staining of outer segments (rd10 mice [9]; P35): substantially more rhodopsin staining | Staining for cone arrestin (rd10 mice [9]; P50): robust | Staining for nitrotyrosine (rd10 mice [9]; P50): greater staining for nitrotyrosine in retinas from P50 vehicle-treated rd10 mice, than in P50 metipranolol-treated rd10 mice | EC50 (ARPE-19 monolayers [2]; Homo sapiens, ARPE-19 assay, concentration-response, gHSA-induced TEER decrease, read-out: EC50): 1300 nM | NADPH Oxidase activity (NADPH Oxidase): did not reduce NADPH Oxidase activity
